For experiment [1], the target named is T1, hPAR2 (Homo sapiens, UniProt P55085).
T1 sequence (P55085 26-397): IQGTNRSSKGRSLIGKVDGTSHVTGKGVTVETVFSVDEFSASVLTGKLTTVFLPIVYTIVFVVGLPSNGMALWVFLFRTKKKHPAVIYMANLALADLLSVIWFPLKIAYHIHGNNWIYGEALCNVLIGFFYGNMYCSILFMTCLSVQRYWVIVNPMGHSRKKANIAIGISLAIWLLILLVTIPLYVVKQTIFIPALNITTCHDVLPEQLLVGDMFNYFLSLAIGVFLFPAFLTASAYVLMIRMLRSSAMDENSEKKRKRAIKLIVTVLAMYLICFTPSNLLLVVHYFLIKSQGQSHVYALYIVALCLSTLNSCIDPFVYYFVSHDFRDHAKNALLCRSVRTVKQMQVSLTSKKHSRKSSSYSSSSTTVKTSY
The experiment can be described thus: Radiolabelled competition binding assay against [^3H]-GB110 on HEKexpi293F membranes. Details: expressed in transfected cells. How it is done: The reaction was then filtered through 0.5% PEI-coated filter plates using a BiomekFX. The filter plate was then dried for 1 h at 50 °C. Scintillation fluid was added to each well, before reading the plate in a Microbeta reader.
(§1) Binding data were analysed using the One site – Fit Ki model in GraphPad Prism 8 (GraphPad Software) to determine binding affinity. Pharmacology in vitro potency data was analysed with a 4-parameter logistic fit using the equation y = Bottom + (Top − Bottom)/[…] where y is the response, x is the 10-logarithm of the drug concentration, Bottom is no response and Top is full response in GraphPad Prism 8 or Genedata Screener (Genedata). pEC50 and pIC50 data are presented as mean ± standard error of the mean (s.e.m.) derived from the number of independent experiments stated. Schild slope analysis was calculated using Graphpad Prism 8 Gaddum/Schild EC50 global fitting (shared model parameters between all data sets) competitive model. The most rigorous method for quantifying agonist-antagonist interactions is to globally fit the Gaddum/Shild model to all agonist dose–response curves. Schild slope quantifies the shifts in agonist response in the presence of antagonist, a Schild slope of 1 indicates the antagonist is competitive and extra-sum-of-squares F-test (p < 0.05) was used to compare the calculated Schild slope against a hypothetical Schild slope of 1. […] The relative activity was calculated using (EmaxEC50’)/(Emax’EC50) with the Hill slope help constant at 1. EC50’ and Emax’ denote the EC50 and Emax in the absence of allosteric modulator, while EC50 and Emax denote those measured in the presence of allosteric modulator. When the Hill slope = 1, the relative activity plot approaches an asymptote corresponding to the estimate of the γ value.

Experiment [2] addresses T1, hPAR2. The experiment can be described thus: Europium-tagged competition binding assay against Eu-tagged-2f-LIGRLO(dtpa)-NH2 on CHO-hPAR2 cells. Also noted: expressed in transfected cells; host or cells: Flp-In CHO. The procedure:
CHO-hPAR2 cells were seeded overnight in 384-well plate at 2.5 × 10^4 cells/well and blocked with 2% BSA for 60 min. […] Cells were washed 3× with PBS supplemented with 20 µM EDTA, 0.01% Tween and 0.2% BSA followed by addition of DELFIA Enhancement Solution (Perkin Elmer) for 90 min. Time-resolved fluorescence was measured with PHERAstar FS reader (BMG Labtech).
as §1, with “The most rigorous method for quantifying agonist-antagonist interactions is to globally fit the Gaddum/Shild model to all agonist dose–response curves.” left out

For a further experiment, the target named is T2, rat PAR2 (Rattus norvegicus, UniProt Q63645).
T2 construct: a rat KNRK cell line with endogenous expression of rat PAR2; host or cells: rat KNRK cells
T2 sequence (Q63645 26-397): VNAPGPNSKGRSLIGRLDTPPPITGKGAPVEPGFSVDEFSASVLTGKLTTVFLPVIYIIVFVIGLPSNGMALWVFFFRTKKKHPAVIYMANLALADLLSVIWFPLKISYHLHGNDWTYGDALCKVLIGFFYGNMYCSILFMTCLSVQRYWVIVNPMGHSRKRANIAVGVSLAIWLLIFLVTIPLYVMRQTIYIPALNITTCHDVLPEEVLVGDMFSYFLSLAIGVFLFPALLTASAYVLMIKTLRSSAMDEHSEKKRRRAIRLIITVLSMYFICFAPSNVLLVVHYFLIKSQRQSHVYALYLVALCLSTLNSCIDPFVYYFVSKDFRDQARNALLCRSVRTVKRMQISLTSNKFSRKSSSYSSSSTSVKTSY
The experiment can be described thus: Ca^2+ flux assay, inhibition of SLIGRL-NH2 activation in rat KNRK cells. Type of experiment: cell-based.

Experiment [3] concerns the target T1, hPAR2. The experiment can be described thus: IP1 HTRF assay, inhibition of SLIGRL-NH2 in 1321N1-hPAR2 cells. It counts as cell-based. The procedure:
Inhibition of PAR2-induced inositol-1-phosphate (IP1) production was measured in 1321N1-hPAR2 cells using IP-One Gq HTRF assay kit (Cisbio). […] Next, EC80 of SLIGRL-NH2 (70 µM) supplemented with 50 mM LiCl was added and incubated for 60 min at 37 °C. Detection of IP1 production was performed according to the manufacturer’s protocol and HTRF was measured using PHERAstar (BMG LabTech). Data were normalised to [IP1] using a standard curve.
as §1, with “The most rigorous method for quantifying agonist-antagonist interactions is to globally fit the Gaddum/Shild model to all agonist dose–response curves.” left out
Background: In TR-FRET formats the signal depends on donor and acceptor labels being close together.

The mark [4] stands for this setting: against Eu-tagged-2f-LIGRLO(dtpa)-NH2, CHO-hPAR2 cells, mean ± s.e.m., read-out: Competition Binding (hPAR2) pKi (converted).
[5] abbreviates: SLIGRL-NH2, rat PAR2 in KNRK cells, mean ± s.e.m., read-out: Ca^2+ flux (rPAR2) pIC50 (converted).
[6] abbreviates: SLIGRL-NH2, 1321N1-hPAR2 cells, mean ± s.e.m., read-out: IP1 (hPAR2) pIC50 (converted).
The mark [7] stands for this setting: earlier manuscript version quoted by reviewer, read-out: Ki.

The structures appear in SMILES notation. Read-outs that look alike come from different tables or passages of the source.

Consider `CNC(=O)[C@H]1CC[C@@H](NC(=O)[C@H](CC2CCCCC2)NC(=O)c2cn(Cc3ccccc3)nn2)c2ccccc21` [AZ2429], for which, on hPAR2 [1] (2 h, log [compound],M -4, individual data points, read-out: specific binding of [^3H]-GB110, Fig 2b source data), the remaining binding at 100 µM worked out at 19.6%. For the same compound, at hPAR2 [1] (2 h, log [compound],M -4.47756, individual data points, read-out: specific binding of [^3H]-GB110, Fig 2b source data), the remaining binding at 33.3 µM turned out to be 10.5%. In addition, the remaining binding at 3.7 µM on hPAR2 [1] (2 h, log [compound],M -5.4318, individual data points, read-out: specific binding of [^3H]-GB110, Fig 2b source data) amounted to 11.5%. Besides, on hPAR2 [1] (2 h, log [compound],M -5.91009, individual data points, read-out: specific binding of [^3H]-GB110, Fig 2b source data), the remaining binding at […] turned out to be 15.9%. Besides, on hPAR2 [1] (2 h, log [compound],M -7.81816, individual data points, read-out: specific binding of [^3H]-GB110, Fig 2b source data), the remaining binding at 0.0152 µM turned out to be 88%. Further, the remaining binding at 0.00508 µM at hPAR2 [1] (2 h, log [compound],M -8.29414, individual data points, read-out: specific binding of [^3H]-GB110, Fig 2b source data) came out at 97.4%. Moreover, the remaining binding at 0.00169 µM on hPAR2 [1] (2 h, log [compound],M -8.77211, individual data points, read-out: specific binding of [^3H]-GB110, Fig 2b source data) worked out at 99.3%. Besides, at hPAR2 [1] (2 h, log [compound],M -9.24795, individual data points, read-out: specific binding of [^3H]-GB110, Fig 2b source data), the remaining binding at 0.000565 µM came to 105%. The Ki at hPAR2 [1] ([3H]-GB110, earlier manuscript version quoted by reviewer, read-out: Ki) is 63 nM.

On to `C[C@@H](C1CCCCC1)n1c(-c2cc3c(cc2Br)OCO3)nc2cc(C(=O)Nc3ccncc3)ccc21` [AZ2623], for which the Ki on hPAR2 [2] (setting [4]) is 79.4 nM. In addition, the figures for the IC50 on rat PAR2 (setting [5]) and on hPAR2 [3] (setting [6]) were 5.01 nM and 81.3 nM, respectively.

For the compound `C[C@@H](C1CCCCC1)n1c(-c2cc3c(cc2Br)OCO3)nc2cc(C(=O)Nc3ccc(C#N)cc3)ccc21` [AZ3451], the Ki at hPAR2 [1] (against [^3H]-GB110, HEKexpi293F membranes expressing hPAR2, mean ± s.e.m., read-out: Competition binding pKi (converted)) is 12.6 nM; at hPAR2 [2] (setting [7]), 120 nM. At hPAR2 [2] (determined with Eu-tagged-2f-LIGRLO(dtpa)-NH2, read-out: equilibrium dissociation constant pKA / pKB (converted)), the Kb is 126 nM. Besides, the IC50 on rat PAR2 (setting [5]) was 3.16 nM; at hPAR2 [3] (setting [6]) it was 22.4 nM. In addition, at hPAR2 [3] (log[compound], M -6.99957, individual data points, read-out: SLIGRL-NH2 IP1 formation, antagonist response, Fig 1d source data), the remaining activity at 0.1001 µM is 15.9%. On hPAR2 [3] (log[compound], M -7.49976, individual data points, read-out: SLIGRL-NH2 IP1 formation, antagonist response, Fig 1d source data), the remaining activity at 0.03164 µM was 43.6%. Further, on hPAR2 [3] (log[compound], M -7.99957, individual data points, read-out: SLIGRL-NH2 IP1 formation, antagonist response, Fig 1d source data), the remaining activity at 0.01001 µM turned out to be 71.9%. The remaining activity at 0.003165 µM at hPAR2 [3] (log[compound], M -8.49963, individual data points, read-out: SLIGRL-NH2 IP1 formation, antagonist response, Fig 1d source data) stood at 100%.

In the case of `CCCc1cc(F)ccc1C(O)c1ncc[nH]1` (stereo not drawn) [AZ8838], the results for the Ki on hPAR2 [1], on hPAR2 [2] (setting [4]) and on hPAR2 [2] (setting [7]) were 398 nM, 6310 nM and 3600 nM, respectively. Moreover, the figures for the IC50 against rat PAR2 and at hPAR2 [3] were 5010 nM and 1450 nM, respectively. Moreover, the remaining activity at 3.163 µM on hPAR2 [3] (read-out: SLIGRL-NH2 IP1 formation, antagonist response, Fig 1d source data, log[compound], M -5.4999, individual data points) came to 40.7%. The remaining activity at 1 µM on hPAR2 [3] (read-out: SLIGRL-NH2 IP1 formation, antagonist response, Fig 1d source data, log[compound], M -6, individual data points) is 54.4%. Moreover, the remaining activity at 0.3164 µM at hPAR2 [3] (read-out: SLIGRL-NH2 IP1 formation, antagonist response, Fig 1d source data, log[compound], M -6.49976, individual data points) was determined as 79.9%. The remaining activity at 0.03164 µM on hPAR2 [3] (read-out: SLIGRL-NH2 IP1 formation, antagonist response, Fig 1d source data, log[compound], M -7.49976, individual data points) is 108%.

The values above are taken from publication PMC7747594, “Protease-activated receptor-2 ligands reveal orthosteric and allosteric mechanisms of receptor inhibition” (Communications Biology, 2020).
